Assay results: ChEMBL document CHEMBL4270599, “Synthesis of a 3'-C-ethynyl-β-d-ribofuranose purine nucleoside library: Discovery of C7-deazapurine analogs as potent antiproliferative nucleosides” (Eur J Med Chem, 2018)

Tests used:
Assay type in all cases: functional
U-251 [1] = test: Growth inhibition of human U251 cells assessed as cell growth at 10^-8 M incubated for 48 hrs by sulforhodamine B assay relative to control; details: U-251, 48 h, read-out: Activity
SK-MEL-2 = test: Growth inhibition of human SK-MEL-2 cells assessed as cell growth at 10^-6 M incubated for 48 hrs by sulforhodamine B assay relative to control; details: SK-MEL-2, 48 h, read-out: Activity
HL-60(TB) [2] = test: Growth inhibition of human HL-60(TB) cells assessed as cell growth at 10^-7 M incubated for 48 hrs by sulforhodamine B assay relative to control; details: HL-60, 48 h, read-out: Activity
Hs-578T [3] = test: Growth inhibition of human Hs 578T cells assessed as cell growth at 10^-5 M incubated for 48 hrs by sulforhodamine B assay relative to control; details: read-out: Activity
EKVX = test: Growth inhibition of human EKVX cells assessed as cell growth at 10^-8 M incubated for 48 hrs by sulforhodamine B assay relative to control; details: read-out: Activity
CCRF-CEM = test: Growth inhibition of human CCRF-CEM cells assessed as cell growth at 10^-6 M incubated for 48 hrs by sulforhodamine B assay relative to control; details: read-out: Activity
786-0 = test: Growth inhibition of human 786-0 cells assessed as cell growth at 10^-8 M incubated for 48 hrs by sulforhodamine B assay relative to control; details: 786-0, 48 h, read-out: Activity
LOX IMVI = test: Growth inhibition of human LOXIMVI cells assessed as cell growth at 10^-7 M incubated for 48 hrs by sulforhodamine B assay relative to control; details: read-out: Activity
MOLT-4 = test: Growth inhibition of human MOLT4 cells assessed as cell growth at 10^-8 M incubated for 48 hrs by sulforhodamine B assay relative to control; details: MOLT-4, 48 h, read-out: Activity
SF-268 = test: Growth inhibition of human SF268 cells assessed as cell growth at 10^-6 M incubated for 48 hrs by sulforhodamine B assay relative to control; details: SF-268, 48 h, read-out: Activity
TK-10 [4] = test: Growth inhibition of human TK10 cells assessed as cell growth at 10^-5 M incubated for 48 hrs by sulforhodamine B assay relative to control; details: TK-10, 48 h, read-out: Activity
HL-60(TB) [5] = test: Growth inhibition of human HL-60(TB) cells assessed as cell growth at 10^-5 M incubated for 48 hrs by sulforhodamine B assay relative to control; details: HL-60, 48 h, read-out: Activity
NCI-H23 [6] = test: Growth inhibition of human NCI-H23 cells assessed as cell growth at 10^-8 M incubated for 48 hrs by sulforhodamine B assay relative to control; details: NCI-H23, 48 h, read-out: Activity
HCT-15 = test: Cytotoxicity against human HCT15 cells after 48 hrs by SRB assay; details: HCT-15, 48 h
U-251 [7] = test: Growth inhibition of human U251 cells assessed as cell growth at 10^-7 M incubated for 48 hrs by sulforhodamine B assay relative to control; details: U-251, 48 h, read-out: Activity
PC-3 [8] = test: Growth inhibition of human PC3 cells assessed as cell growth at 10^-5 M incubated for 48 hrs by sulforhodamine B assay relative to control; details: PC-3, 48 h, read-out: Activity
MCF7 [9] = test: Growth inhibition of human MCF7 cells assessed as cell growth at 10^-5 M incubated for 48 hrs by sulforhodamine B assay relative to control; details: MCF7, 48 h, read-out: Activity
MCF7 [10] = test: Growth inhibition of human MCF7 cells assessed as cell growth at 10^-8 M incubated for 48 hrs by sulforhodamine B assay relative to control; details: MCF7, 48 h, read-out: Activity
UACC-257 [11] = test: Cytotoxicity against human UACC257 cells after 48 hrs by SRB assay; details: UACC-257, 48 h
A549 [12] = test: Growth inhibition of human A549/ATCC cells assessed as cell growth at 10^-4 M incubated for 48 hrs by sulforhodamine B assay relative to control; details: A549, 48 h, read-out: Activity
SN12C = test: Growth inhibition of human SN12C cells assessed as cell growth at 10^-7 M incubated for 48 hrs by sulforhodamine B assay relative to control; details: read-out: Activity
PC-3 [13] = test: Cytotoxicity against human PC3 cells after 48 hrs by SRB assay; details: PC-3, 48 h
A549 [14] = test: Growth inhibition of human A549/ATCC cells assessed as cell growth at 10^-7 M incubated for 48 hrs by sulforhodamine B assay relative to control; details: A549, 48 h, read-out: Activity
U-251 [15] = test: Growth inhibition of human U251 cells assessed as cell growth at 10^-6 M incubated for 48 hrs by sulforhodamine B assay relative to control; details: U-251, 48 h, read-out: Activity
NCI/ADR-RES = test: Growth inhibition of human NCI/ADR-RES cells assessed as cell growth at 10^-7 M incubated for 48 hrs by sulforhodamine B assay relative to control; details: read-out: Activity
UACC-257 [16] = test: Growth inhibition of human UACC257 cells assessed as cell growth at 10^-5 M incubated for 48 hrs by sulforhodamine B assay relative to control; details: UACC-257, 48 h, read-out: Activity
MDA-MB-468 = test: Growth inhibition of human MDA-MB-468 cells assessed as cell growth at 10^-7 M incubated for 48 hrs by sulforhodamine B assay relative to control; details: MDA-MB-468, 48 h, read-out: Activity
NCI-H23 [17] = test: Growth inhibition of human NCI-H23 cells assessed as cell growth at 10^-5 M incubated for 48 hrs by sulforhodamine B assay relative to control; details: NCI-H23, 48 h, read-out: Activity
HCT-116 [18] = test: Growth inhibition of human HCT116 cells assessed as cell growth at 10^-4 M incubated for 48 hrs by sulforhodamine B assay relative to control; details: HCT-116, 48 h, read-out: Activity
TK-10 [19] = test: Growth inhibition of human TK10 cells assessed as cell growth at 10^-6 M incubated for 48 hrs by sulforhodamine B assay relative to control; details: TK-10, 48 h, read-out: Activity
HCT-116 [20] = test: Growth inhibition of human HCT116 cells assessed as cell growth at 10^-5 M incubated for 48 hrs by sulforhodamine B assay relative to control; details: HCT-116, 48 h, read-out: Activity
Hs-578T [21] = test: Growth inhibition of human Hs 578T cells assessed as cell growth at 10^-7 M incubated for 48 hrs by sulforhodamine B assay relative to control; details: read-out: Activity
SF-295 [22] = test: Cytotoxicity against human SF295 cells after 48 hrs by SRB assay; details: SF-295, 48 h
SF-295 [23] = test: Growth inhibition of human SF295 cells assessed as cell growth at 10^-7 M incubated for 48 hrs by sulforhodamine B assay relative to control; details: SF-295, 48 h, read-out: Activity
UACC-257 [24] = test: Growth inhibition of human UACC257 cells assessed as cell growth at 10^-6 M incubated for 48 hrs by sulforhodamine B assay relative to control; details: UACC-257, 48 h, read-out: Activity
[25] = read-out: pLC50 (the source's name) (converted)

For `C#C[C@@]1(O)[C@@H](CO)O[C@@H](n2ccc3c(N)ncnc32)[C@@H]1O`, the growth at 0.01 µM (U-251 [1]) was 102%, the growth at 1 µM (SK-MEL-2) was 60% and the growth at 0.1 µM (HL-60(TB) [2]) was 105%. For the same compound, the growth at 10 µM (Hs-578T [3]) was 19%, the growth at 0.01 µM (EKVX) was 87% and the growth at 1 µM (CCRF-CEM) was 70%. It also gave a growth at 0.01 µM (786-0) of 91%, a growth at 0.1 µM (LOX IMVI) of 99% and a growth at 0.01 µM (MOLT-4) of 96%. The growth at 1 µM (SF-268) was 76%, the growth at 10 µM (TK-10 [4]) was -2% and the growth at 10 µM (HL-60(TB) [5]) was -24%. The growth at 0.01 µM (NCI-H23 [6]) was 95%, the TGI (HCT-15; read-out: TGI) was 4.62 µM and the GI50 (HCT-15; read-out: pGI50 (converted)) was 0.891 µM. It also gave a CC50 (HCT-15; [25]) greater than 100 µM, a TGI (HCT-15; read-out: pTGI (converted)) of 4.57 µM and a growth at 0.1 µM (U-251 [7]) of 107%. It also gave a growth at 10 µM (PC-3 [8]) of -37%, a growth at 10 µM (MCF7 [9]) of -4% and a growth at 0.01 µM (MCF7 [10]) of 83%. The TGI (UACC-257 [11]; read-out: TGI) was 7.05 µM, the GI50 (UACC-257 [11]; read-out: pGI50 (converted)) was 2.29 µM and the CC50 (UACC-257 [11]; [25]) was 55 µM. The TGI (UACC-257 [11]; read-out: pTGI (converted)) was 7.08 µM, the growth at 100 µM (A549 [12]) was 3% and the growth at 0.1 µM (SN12C) was 96%. The TGI (PC-3 [13]; read-out: TGI) was 3.54 µM, the GI50 (PC-3 [13]; read-out: pGI50 (converted)) was 0.813 µM and the CC50 (PC-3 [13]; [25]) was 33.1 µM. For the same compound, the TGI (PC-3 [13]; read-out: pTGI (converted)) was 3.55 µM, the growth at 0.1 µM (A549 [14]) was 107% and the growth at 1 µM (U-251 [15]) was 80%. For the same compound, the growth at 0.1 µM (NCI/ADR-RES) was 92%, the growth at 10 µM (UACC-257 [16]) was -16% and the growth at 0.1 µM (MDA-MB-468) was 97%. It also gave a growth at 10 µM (NCI-H23 [17]) of -32%, a growth at 100 µM (HCT-116 [18]) of -54% and a growth at 1 µM (TK-10 [19]) of 88%. It also gave a growth at 10 µM (HCT-116 [20]) of 2%, a growth at 0.1 µM (Hs-578T [21]) of 100% and a TGI (SF-295 [22]; read-out: TGI) of 5.33 µM. The GI50 (SF-295 [22]; read-out: pGI50 (converted)) was 1.74 µM, the CC50 (SF-295 [22]; [25]) was greater than 100 µM and the TGI (SF-295 [22]; read-out: pTGI (converted)) was 5.37 µM. For the same compound, the growth at 0.1 µM (SF-295 [23]) was 98% and the growth at 1 µM (UACC-257 [24]) was 88%.
